Data taken from PubChem BioAssay AID1963869 (Molecular Pharmacology Branch, DTP, NCI, 2024).

Tested on: KRAS patient-derived spheroids with HUVEC/MSC, viability
Experiment: Anticancer human tumor 323965-272-R-J2-PDC patient-derived pancreatic carcinoma cell line growth inhibition [KRAS2]
Settings: for viability, T/C: stronger effect = lower value
Source text: Multicellular complex tumor spheroid response to RAS pathway inhibitors in combination with a targeted agents in patient-derived cell lines with oncogenic KRAS variants from multiple cancer types
A high-throughput screen of multi-cell type tumor spheroids was designed to identify active combinations of targeted small molecules and KRAS pathway inhibitors. Complex spheroids include a stromal component modeled by human endothelial cells (HUVEC) and fibroblasts modeled by human mesenchymal stem cells (MSCs). The concentration ranges selected for each drug and investigational agent were based upon clinically achievable concentrations if the clinical Cmax of the agent was known.
Compounds. The drugs and investigational agents: BI-3406 (NSC825286), BAY-293 (NSC824723), batoprotafib (TNO155; NSC825523), sotorasib (AMG 510; NSC818433), MRTX1257 (NSC819558), elimusertib (BAY 1895344; NSC800525), molibresib (GSK525762; NSC774829), temuterkib (LY3214996; NSC803410), venetoclax (NSC766270), alisertib (NSC759677), olaparib (NSC753686), talazoparib (NSC767125), erdafitinib (NSC781556), ipatasertib (NSC767898), cabozantinib (NSC761068), nintedanib (NSC756659), abemaciclib (NSC768073), docetaxel (NSC628503), trametinib (NSC758246), and sapanisertib (NSC764658) were obtained from the National Cancer Institute (NCI) Developmental Therapeutics Program Chemical Repository. The FDA-approved anticancer drug set is available from the Developmental Therapeutics Program. […] The stock solutions were prepared in dimethyl sulfoxide (DMSO, Sigma-Aldrich, St. Louis, MO, cat. D2650) at 800-fold the tested concentration and stored at -70 degrees C prior to their use. All drugs and investigational agents were tested over a range starting from a high concentration at or near the clinical Cmax and decreasing in half-log increments. If the clinical Cmax for an agent had not been determined, the highest concentration tested was 10 microM.
Cell Culture. All cells were maintained in an incubator at 37 degrees C and 5% CO2 with 95% humidity. The PDC lines were cultured according to standard operating procedures established by the NCI PDMR (https://pdmr.cancer.gov/sops/default.htm). Briefly, all PDCs were thawed and cultured in Matrigel-coated flasks prepared with a working solution of 1X Ham's F-12 nutrient mix, without supplementation (Invitrogen, Waltham, MA, cat. 11765054), 100 U/mL penicillin-streptomycin (Invitrogen, cat. 15140122), and 2.5% Matrigel (Corning Inc., Corning, NY, cat. 354248) for the first three passages. All PDCs were cultured in complete DMEM/F-12 media containing advanced DMEM/F-12 (Invitrogen, cat. 12634028), 4.9% defined fetal bovine serum, heat inactivated (HyClone Laboratories Inc., Logan, UT, cat. SH30070.03HI), 389 ng/mL hydrocortisone (Sigma-Aldrich, cat. H4001), 9.7 ng/mL human EGF recombinant protein (Invitrogen, cat. PHG0313), 23.4 microg/mL adenine (Sigma-Aldrich, cat. A2786), 97.3 U/mL penicillin-streptomycin (Invitrogen, cat. 15140122), 1.9 mM L-glutamine (Invitrogen, cat. 25030081), and 9.7 microM Y-27632 dihydrochloride (Tocris Bioscience, Bristol, United Kingdom, cat. 1254). The PDCs were cultured in complete DMEM/F12 media without 9.7 microM Y-27632 dihydrochloride for at least two passages prior to the screen. The established cell line HOP-62 was cultured in RPMI 1640 medium, HEPES (Invitrogen, cat. 22400105) with 10% defined fetal bovine serum (HyClone Laboratories Inc., cat. SH30070.03) and 2 mM L-glutamine (Invitrogen, cat. 25030081). The pooled donor HUVEC were cultured in endothelial cell growth medium 2 (PromoCell, Heidelberg, Germany, cat. C-22011) and the hMSC were cultured in mesenchymal stem cell growth medium 2 (PromoCell, cat. C-28009). For all experiments, HUVEC and hMSC were used at passages </=5, while the malignant cell lines were used at passages </=15. […]

[1] = curve of first compound, second compound 0.1 µM
[2] = curve of first compound, second compound 0.316 µM
[3] = curve of first compound, second compound 1 µM
[4] = curve of first compound, second compound 3.16 µM
[5] = curve of first compound, second compound 10 µM
[6] = second compound 0.1 µM, first compound 0.0316 µM
[7] = second compound 0.1 µM, first compound 0.1 µM
[8] = second compound 0.316 µM, first compound 0.0316 µM
[9] = second compound 0.316 µM, first compound 0.1 µM
[10] = second compound 1 µM, first compound 0.0316 µM
[11] = second compound 1 µM, first compound 0.1 µM
[12] = second compound 3.16 µM, first compound 0.0316 µM
[13] = second compound 3.16 µM, first compound 0.1 µM
[14] = second compound 10 µM, first compound 0.0316 µM
[15] = second compound 10 µM, first compound 0.1 µM
[16] = second compound 0.1 µM, first compound 0.000316 µM
[17] = second compound 0.1 µM, first compound 0.001 µM
[18] = second compound 0.1 µM, first compound 0.00316 µM
[19] = second compound 0.1 µM, first compound 0.01 µM
[20] = second compound 0.316 µM, first compound 0.000316 µM
[21] = second compound 0.316 µM, first compound 0.001 µM
[22] = second compound 0.316 µM, first compound 0.00316 µM
[23] = second compound 0.316 µM, first compound 0.01 µM
[24] = second compound 1 µM, first compound 0.000316 µM
[25] = second compound 1 µM, first compound 0.001 µM
[26] = second compound 1 µM, first compound 0.00316 µM
[27] = second compound 1 µM, first compound 0.01 µM
[28] = second compound 3.16 µM, first compound 0.000316 µM
[29] = second compound 3.16 µM, first compound 0.001 µM
[30] = second compound 3.16 µM, first compound 0.00316 µM
[31] = second compound 3.16 µM, first compound 0.01 µM
[32] = second compound 10 µM, first compound 0.000316 µM
[33] = second compound 10 µM, first compound 0.001 µM
[34] = second compound 10 µM, first compound 0.00316 µM
[35] = second compound 10 µM, first compound 0.01 µM
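Also: spheroids exposed to agents for 7 days.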
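For viability, T/C in this document: 100% = DMSO vehicle control viability.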

## COc1cc2nccc(Oc3ccc(NC(=O)C4(C(=O)Nc5ccc(F)cc5)CC4)cc3)c2cc1OC + COc1cc2nc(C)nc(NC(C)c3cc(N)cc(C(F)(F)F)c3)c2cc1OC1CCOC1
[1]
  IC50: > 10000 nM
[2]
  IC50: > 10000 nM
[3]
  IC50: > 10000 nM
[4]
  IC50: 9980 nM
[5]
  IC50: 3890 nM
[6]
  viability, T/C: 86.5%
[7]
  viability, T/C: 86.5%
Second compound 0.1 µM, first compound 0.316 µM
  viability, T/C: 84.1%
Second compound 0.1 µM, first compound 1 µM
  viability, T/C: 86.5%
Second compound 0.1 µM, first compound 3.16 µM
  viability, T/C: 75.7%
Second compound 0.1 µM, first compound 10 µM
  viability, T/C: 86.2%
[8]
  viability, T/C: 76%
[9]
  viability, T/C: 85.7%
Second compound 0.316 µM, first compound 0.316 µM
  viability, T/C: 88%
Second compound 0.316 µM, first compound 1 µM
  viability, T/C: 82.2%
Second compound 0.316 µM, first compound 3.16 µM
  viability, T/C: 84.7%
Second compound 0.316 µM, first compound 10 µM
  viability, T/C: 75.2%
[10]
  viability, T/C: 84.4%
[11]
  viability, T/C: 79.8%
Second compound 1 µM, first compound 0.316 µM
  viability, T/C: 84.5%
Second compound 1 µM, first compound 1 µM
  viability, T/C: 82.8%
Second compound 1 µM, first compound 3.16 µM
  viability, T/C: 74.1%
Second compound 1 µM, first compound 10 µM
  viability, T/C: 66.3%
[12]
  viability, T/C: 87.1%
[13]
  viability, T/C: 85.3%
Second compound 3.16 µM, first compound 0.316 µM
  viability, T/C: 95.3%
Second compound 3.16 µM, first compound 1 µM
  viability, T/C: 89.6%
Second compound 3.16 µM, first compound 3.16 µM
  viability, T/C: 79%
Second compound 3.16 µM, first compound 10 µM
  viability, T/C: 49.5%
[14]
  viability, T/C: 85.4%
[15]
  viability, T/C: 93.6%
Second compound 10 µM, first compound 0.316 µM
  viability, T/C: 84.9%
Second compound 10 µM, first compound 1 µM
  viability, T/C: 84.3%
Second compound 10 µM, first compound 3.16 µM
  viability, T/C: 59.1%
Second compound 10 µM, first compound 10 µM
  viability, T/C: 7.87%

## CC1COCCN1c1cc(-c2ccnn2C)c2ccnc(-c3ccn[nH]3)c2n1 (configuration not stated)
Compound 0.01 µM
  viability, T/C: 77.9% [middle of 5 runs]
Compound 0.0316 µM
  viability, T/C: 39.8% [middle of 5 runs]
Compound 0.1 µM
  viability, T/C: 25.1% [middle of 5 runs]
Compound 0.316 µM
  viability, T/C: 21.9% [middle of 5 runs]
Compound 1 µM
  viability, T/C: 20.6% [middle of 5 runs]
Compound 3.16 µM
  viability, T/C: 18.9% [middle of 5 runs]
Curve of compound
  IC50: 23.8 nM [middle of 5 runs]

## CN(C)C/C=C/C(=O)Nc1cc2c(Nc3ccc(F)c(Cl)c3)ncnc2cc1O[C@H]1CCOC1 + COc1cc2nc(C)nc(NC(C)c3cc(N)cc(C(F)(F)F)c3)c2cc1OC1CCOC1
[1]
  IC50: > 100 nM
[2]
  IC50: > 100 nM
[3]
  IC50: > 100 nM
[4]
  IC50: 25 nM
[5]
  IC50: 14.8 nM
[16]
  viability, T/C: 84.3%
[17]
  viability, T/C: 65.2%
[18]
  viability, T/C: 65.8%
[19]
  viability, T/C: 60.5%
[6]
  viability, T/C: 62.1%
[7]
  viability, T/C: 60.7%
[20]
  viability, T/C: 67.7%
[21]
  viability, T/C: 65.6%
[22]
  viability, T/C: 53.6%
[23]
  viability, T/C: 46.5%
[8]
  viability, T/C: 51.2%
[9]
  viability, T/C: 54.5%
[24]
  viability, T/C: 59.5%
[25]
  viability, T/C: 94.3%
[26]
  viability, T/C: 74.7%
[27]
  viability, T/C: 73%
[10]
  viability, T/C: 61.3%
[11]
  viability, T/C: 69.1%
[28]
  viability, T/C: 74.3%
[29]
  viability, T/C: 71.7%
[30]
  viability, T/C: 59.5%
[31]
  viability, T/C: 54.2%
[12]
  viability, T/C: 47.8%
[13]
  viability, T/C: 49.2%
[32]
  viability, T/C: 92.1%
[33]
  viability, T/C: 75.8%
[34]
  viability, T/C: 59.3%
[35]
  viability, T/C: 49.4%
[14]
  viability, T/C: 49.1%
[15]
  viability, T/C: 48.4%

## Cn1ncnc1[C@H]1c2n[nH]c(=O)c3cc(F)cc(c23)N[C@@H]1c1ccc(F)cc1 + COc1cc2nc(C)nc(NC(C)c3cc(N)cc(C(F)(F)F)c3)c2cc1OC1CCOC1
[1]
  IC50: > 100 nM
[2]
  IC50: > 100 nM
[3]
  IC50: > 100 nM
[4]
  IC50: > 100 nM
[5]
  IC50: > 100 nM
[16]
  viability, T/C: 85.1%
[17]
  viability, T/C: 82.1%
[18]
  viability, T/C: 86.3%
[19]
  viability, T/C: 73.6%
[6]
  viability, T/C: 76%
[7]
  viability, T/C: 70%
[20]
  viability, T/C: 79.1%
[21]
  viability, T/C: 81.4%
[22]
  viability, T/C: 71.9%
[23]
  viability, T/C: 74.9%
[8]
  viability, T/C: 65.2%
[9]
  viability, T/C: 61.5%
[24]
  viability, T/C: 73.3%
[25]
  viability, T/C: 80.5%
[26]
  viability, T/C: 69%
[27]
  viability, T/C: 67.2%
[10]
  viability, T/C: 63.8%
[11]
  viability, T/C: 58.1%
[28]
  viability, T/C: 79.8%
[29]
  viability, T/C: 71.6%
[30]
  viability, T/C: 69.6%
[31]
  viability, T/C: 64.4%
[12]
  viability, T/C: 65.2%
[13]
  viability, T/C: 61%
[32]
  viability, T/C: 75.1%
[33]
  viability, T/C: 79.8%
[34]
  viability, T/C: 76.8%
[35]
  viability, T/C: 78.4%
[14]
  viability, T/C: 67%
[15]
  viability, T/C: 62.4%
